The source of these data is patent publication US20190004043A1 (priority 2015, published 2019).

Holding throughout (assay type): binding
Assay [1] addresses T1, Torpedo nicotinic Acetylcholine Receptor (Tetronarce californica, UniProt P02710+P02714+P02718). The assay is described as follows: Lateral flow test with two test lines: dose-response competition with biotinylated toxin tracer. The following applies: for coloration of the two test lines / inhibition of labelled ligand binding: toxin 0.01 to 1 μM. As to the method: The device used was a device manufactured according to above example 1, with the exception that two test lines were used instead of one test line and one control line. The control line is used to control if the strip test works properly. We controlled that all the lateral flow test devices were working well and we carried out several tests without toxins that we took as control (Ctrl) that the device was working as expected (FIG. 4).
In the present example several experiments were carried out using different toxins at different concentrations. Through the format two test lines, we tested the potency of the toxins at a given concentration.
In particular, different doses of the snake toxin a-bungarotoxin were tested between 0.01 to 10 μM (FIG. 4A). For that purpose, 1 mL of α-bungarotoxin at a concentration of 10 μM was prepared from the commercial a-bungarotoxin (Sigma; 250 μM) using TBS-BSA buffer (150 mM NaCl, 50 mM Tris-HCl, 0.5% BSA, pH 7.5). Successively, 1 mL of 1 μM α-bungarotoxin was prepared by diluting 10-times the previous concentrated solution using TBS-BSA buffer. Serial 10-times dilutions were performed as described to obtain the 0.1 and 0.01 μM α-bungarotoxin solutions using TBS-BSA buffer.
Different doses of the dinoflagellate toxin pinnatoxin-G ranging from 0.01 to 100 μM were also tested (FIG. 4B). For that purpose, 1 mL of pinnatoxin-G at a concentration of 100 μM was prepared from the synthetic pinnatoxin-G stock (A. Zakarian; 2 mM) using TBS-BSA buffer (150 mM NaCl, 50 mM Tris-HCl, 0.5% BSA, pH 7.5). Successively, 1 mL of 50 μM pinnatoxin-G was prepared by diluting 2-times the previous concentrated solution using TBS-BSA buffer. A solution of 1 μM pinnatoxin-G was obtained by diluting 50-times the previous 50 μM pinnatoxin-G solution using TBS-BSA buffer. Serial 10-times dilutions were performed as described to obtain the 0.1 and 0.01 μM pinnatoxin-G solutions using TBS-BSA buffer.
Finally, different doses of the dinoflagellate toxin 13,19-didesmethyl-spirolide C ranging from 0.01 to 10 μM were also tested. For that purpose, 1 mL of 13,19-didesmethyl-spirolide C at a concentration of 10 μM was prepared from the concentrated 13,19-didesmethyl-spirolide C stock (CIFGA; 100 μM) using TBS-BSA buffer (150 mM NaCl, 50 mM Tris-HCl, 0.5% BSA, pH 7.5). Successively, 1 mL of 1 μM 13,19-didesmethyl-spirolide C was prepared by diluting 10-times the previous concentrated solution using TBS-BSA buffer. Serial 10-times dilutions were performed as described to obtain the 0.1 and 0.01 μM 13,19-didesmethyl-spirolide C solutions using TBS-BSA buffer.
The competition experiments were carried out as disclosed in above example 2.

For assay [2], the target named is T1, Torpedo nicotinic Acetylcholine Receptor.
Assay [3] shares this target. The assay is described as follows: Lateral flow test with two test lines: dose-response competition with biotinylated toxin tracer. The following applies: lower concentrations (0.001 to 1 μM).

Entries after “also recorded” stand apart in the source; their conditions may differ. Read-outs that look alike come from different tables or passages of the source.

T1 sequence (P02718 22-522): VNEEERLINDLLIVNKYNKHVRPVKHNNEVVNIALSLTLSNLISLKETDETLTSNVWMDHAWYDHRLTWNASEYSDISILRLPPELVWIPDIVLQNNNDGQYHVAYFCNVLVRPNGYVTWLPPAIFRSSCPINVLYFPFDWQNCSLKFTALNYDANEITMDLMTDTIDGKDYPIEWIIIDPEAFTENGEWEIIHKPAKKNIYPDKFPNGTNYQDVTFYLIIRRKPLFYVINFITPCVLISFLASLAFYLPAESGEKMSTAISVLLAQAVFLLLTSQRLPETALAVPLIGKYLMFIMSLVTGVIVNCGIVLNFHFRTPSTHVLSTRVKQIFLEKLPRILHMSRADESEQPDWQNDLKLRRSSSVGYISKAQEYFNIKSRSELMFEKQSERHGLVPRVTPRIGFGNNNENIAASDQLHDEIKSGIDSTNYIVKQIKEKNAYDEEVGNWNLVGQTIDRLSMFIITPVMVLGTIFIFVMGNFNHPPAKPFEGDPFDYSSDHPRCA
T1 sequence (P02714 18-506): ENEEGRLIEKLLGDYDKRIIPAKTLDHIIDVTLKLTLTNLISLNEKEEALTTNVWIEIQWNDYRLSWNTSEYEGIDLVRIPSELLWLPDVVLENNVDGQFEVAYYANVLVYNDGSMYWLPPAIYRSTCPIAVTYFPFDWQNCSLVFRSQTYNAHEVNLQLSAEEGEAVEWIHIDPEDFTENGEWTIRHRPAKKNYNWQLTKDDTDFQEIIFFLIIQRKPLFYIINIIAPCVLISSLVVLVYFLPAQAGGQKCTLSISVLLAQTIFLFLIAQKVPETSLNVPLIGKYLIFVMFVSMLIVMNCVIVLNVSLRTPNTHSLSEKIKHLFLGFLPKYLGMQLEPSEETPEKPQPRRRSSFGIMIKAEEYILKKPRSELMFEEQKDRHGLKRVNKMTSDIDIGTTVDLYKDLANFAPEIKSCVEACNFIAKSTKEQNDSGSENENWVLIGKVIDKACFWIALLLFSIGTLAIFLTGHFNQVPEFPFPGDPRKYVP
T1 sequence (P02712 25-493, further chain): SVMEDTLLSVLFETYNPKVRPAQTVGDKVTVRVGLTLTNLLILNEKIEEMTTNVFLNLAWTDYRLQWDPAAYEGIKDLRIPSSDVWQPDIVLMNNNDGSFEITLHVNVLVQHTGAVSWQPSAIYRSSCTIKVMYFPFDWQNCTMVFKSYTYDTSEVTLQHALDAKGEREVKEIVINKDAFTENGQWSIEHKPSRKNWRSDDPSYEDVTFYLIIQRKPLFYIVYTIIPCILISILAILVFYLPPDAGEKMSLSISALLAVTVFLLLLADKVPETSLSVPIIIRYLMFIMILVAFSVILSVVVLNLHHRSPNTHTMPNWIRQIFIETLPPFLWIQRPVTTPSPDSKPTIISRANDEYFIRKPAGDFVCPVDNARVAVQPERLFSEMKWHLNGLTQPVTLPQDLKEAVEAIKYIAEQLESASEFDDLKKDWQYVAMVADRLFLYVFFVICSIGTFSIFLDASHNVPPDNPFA
T1 sequence (P02710 25-461): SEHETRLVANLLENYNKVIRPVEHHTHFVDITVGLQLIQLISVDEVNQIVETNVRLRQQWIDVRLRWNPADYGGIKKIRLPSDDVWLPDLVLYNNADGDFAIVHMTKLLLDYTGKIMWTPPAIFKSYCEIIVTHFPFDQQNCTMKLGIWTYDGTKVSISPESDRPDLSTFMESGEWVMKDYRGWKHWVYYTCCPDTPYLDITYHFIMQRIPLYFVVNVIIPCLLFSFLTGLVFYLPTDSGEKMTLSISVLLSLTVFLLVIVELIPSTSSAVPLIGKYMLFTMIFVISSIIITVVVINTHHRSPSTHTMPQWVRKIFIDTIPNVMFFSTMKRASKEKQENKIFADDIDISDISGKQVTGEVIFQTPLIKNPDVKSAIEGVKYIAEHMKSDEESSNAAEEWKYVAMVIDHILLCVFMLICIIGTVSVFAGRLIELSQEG

Regarding `C=C1CCCC2=NCC(C)C(C)CC23CCC(C2C=C(C)C(=O)O2)=C(C)C3/C=C(\C)C(O)CC2CCC3(CCC4(OC(CCC4O)C1)O3)O2` (centres unmarked) [13,19-didesmethyl-spirolide C], in assay [1] (all concentrations, 0.01 to 10 μM), the “inhibition of binding of the biotinylated toxin tracer” value was “inhibited the binding of the biotinylated toxin tracer at all concentration”. Further, the “inhibition of binding of the labelled ligand (test lines colorless)” value (shortened to “inhibition of binding … (test lines colorless)”) in assay [1] (toxin 1 μM) and in assay [1] (toxin 10 μM) was 100% each time. For the same compound, the “coloration of the two test lines / inhibition of labelled ligand binding” value in assay [1] is “strong inhibition”.
Take `C=C1CCCC2=NCC(C)C(C)CC23CCC(C2C=C(C)C(=O)O2)=C(C)C3/C=C(/C)C(O)CC2CCC3(CCC4(OC(CCC4(C)O)C1)O3)O2` (centres unmarked) [13-desmethyl-spirolide C]: the “coloration of test line versus control line / inhibition of tracer binding” value in assay [2] is “a colorless or a less-colored band in the test zone; also recorded: inhibits the binding of the tracer”.
On to `C=CC1=C[C@@H]2[C@@H]3O[C@]4(C[C@H]5CCC[C@@]6(CC[C@@]7(O[C@@H](CC[C@@]7(C)O)CC(=C)CCCC7=NC[C@H](C)[C@@H](C)C[C@@]72CC1)O6)O5)C[C@@H](C)[C@@H](O)[C@H]3O4` [pinnatoxin-G], for which, in assay [1] (toxin 50 μM), the “coloration of the two test lines versus control strip” value is “both test lines were colorless” and the “inhibition of binding … (test lines colorless)” value is 100%. In assay [1] (toxin 100 μM), the “coloration of the two test lines versus control strip” value is “both test lines were colorless” and the “inhibition of binding … (test lines colorless)” value amounted to 100%. The “coloration of the two test lines / inhibition of labelled ligand binding” value in assay [1] is “only the second test line was colored with a lower intensity than was shown by the control strip”. Moreover, the “coloration of the two test lines versus control test” value in assay [3] was “only the upper test line was colored but to a less intensity than in the control test”.
For α-bungarotoxin, in assay [1], the “coloration of the two test lines / binding of labelled tracer” value is “inhibited the binding of the labelled tracer in both test lines”; the “coloration of the two test lines versus control test” value is reported as “both test lines are colored showing, however, a less intensity than in the control test”; the “inhibition of binding … (test lines colorless)” value came out at 100%.
